Assay results: US6096788A, “Antimalaria and antibabesiosis agents and pharmaceutical compositions containing such agents” (priority 1996, dated 2000)

How the values were obtained:
[1] = tested on: Plasmodium vinckei, petterei or chabaudi; experiment: Therapeutic index in infected mice (antimalaria activity compared with semi-chronic toxicity); type: in vivo; conditions: i.p. or s.c., twice a day for four days, ratio of activity over toxicity (LD50)
Description: In order to evaluate the therapeutic index of the different products, the activity of these products was tested in vivo and compared with […] toxicity in animals. This activity was measured using the test described by PETERS W. (Chemotherapy and Drug resistance in Malaria, 1970). A compound was administered for four consecutive days to mice previously infected with Plasmodium vinckei, petterei or chabaudi. The said compound was dissolved in a 0.9% NaCl solution. The preparations were thus administered intraperitoneally or subcutaneously in male Swiss mice infected by intravenous injection of Plasmodium petterei or Plasmodium chadaudi (10^6 infected cells). The compound was administered twice a day for four consecutive days, the first injection being performed two hours after the infestation and the second, 10 hours later. The parasitemia was determined on blood smears the day after the end of treatment. Toxicity was measured in vivo following the same schedule, the animals having received, under the same administration conditions as above, two injections per day for four days (semi-chronic toxicity). The results are expressed in lethal dose 50 (LD50), i.e. the dose causing death in 50% of the animals.
The results of these trials are summarized in Table I, below, and expressed as therapeutic index, or the ratio of activity over toxicity measured under the identical conditions described above.

[2] = tested on: Babesia bovis, Babesia canis; experiment: In vitro antibabesia activity, (3H) hypoxanthine incorporation; type: cell-based; conditions: score from ED50 of (3H) hypoxanthine incorporation
Excerpt: The screening process for antimalaria activity, based on parasite incorporation of (^3 H) hypoxanthine was used to test the antimetabolic activity of such components against Babesia bovis, Babesia canis. A tight relationship was found between the rate of (^3 H) hypoxanthine incorporation using standard measurements and the percentage of parasitized cells determined by microscopy. […] The score was ++ for the same activity at a concentration of 0.01 to 0.1 micromoles and finally + for a concentration under or equal to 1 micromole.

[3] = tested on: P. falciparum (FVO isolate); experiment: Antimalaria activity of G25 in Aotus lemurinus monkey infected by P. falciparum FVO isolate; type: in vivo
Excerpt: Besides chimpanzees, only two South American monkey species, Aotus and Saimiri seirius, can be infected by P. falciparum. Currently, infection of Aotus monkeys with the human parasite is the best, and quasi-unique, model for evaluating therapeutic or vaccinal interventions against malaria (Collins W. E., Gallaud C. G., Sullivan J. S., and Morris C. L., "Selections of different strains of Plasmodium falciparum for testing blood stages in Aotus nancymal monkeys" An. J. Trop. Med. Hyg., 1994, 51 (2) 224-232).
The antimalaria activity was thus evaluated in the Aotus lemurinus monkey infected by the FVO (falciparum Vietnam Oaknoll) isolate of P. falciparum. This isolate is chloroquine-resistant and inevitably lethal for Aotus monkeys at the "Fundacion Centro de Primates" at the University del Valle, Cali, Colombia.
Treatment with G25 (dissolved in 0.9% NaCl) was initiated when the parasitemia reached 5.6%; 16 doses (0.2 mg/kg b.i.d. for 8 days) were given. […] The parasitemia in a monkey treated by combination sulfadoxine/pyrimethamine (FANSIDAR) is given for comparison.
In all, 15 monkeys were infected, then treated with G25 given by intramuscular injections at doses ranging from 0.010 to 0.2 mg/kg.

[4] = Maximal tolerable dose and therapeutic index in the monkey; conditions: in vivo

Row | SMILES | Therapeutic index [1] | Antibabesia activity at 10 millimoles [2] | Decline in parasitemia ([3]; FVO isolate, 0.2 mg/kg b.i.d. for 8 days, treatment started at 5.6% parasitemia) | minimal effective dose ([3]; Plasmodium falciparum, in Primates, im, 4380 h, intramuscular, 6 months follow-up, read-out: Lowest dose with complete cure (validated by PCR), no recurrences) [mg/kg] | Activity at 0.01 mg/kg ([3]; intramuscular, 0.01 mg/kg) | MTD [4] [mg/kg] | selectivity ratio ([4]; read-out: therapeutic index (LD50/ED50) in the monkey)
1 | CCC[N+](CCC)(CCC)CCCCCCCCCCCCCCCC[N+](CCC)(CCC)CCC.[Br-].[Br-] [EXAMPLE 9, N,N,N,N',N',N'-hexapropyl-1,16-hexadecanediaminium dibromide] | 36 | +++ (a 50% inhibition of (^3 H) hypoxanthine incorporation (ED50), these molecules having a concentration less than or equal to 0.01 micromoles) |  |  |  |  | 
2 | CCC[N+](CCC)(CCC)CCCCCCCCCCCCCCCC[N+](CCC)(CCC)CCC.[Br-].[Br-] [EXAMPLE 12, N,N,N,N',N',N'-hexapropyl-1,16-hexadecanediaminium dibromide] | 11 | ++ (the same activity at a concentration of 0.01 to 0.1 micromoles) |  |  |  |  | 
3 | C[N+]1(CCCCCCCCCCCCCC[N+]2(C)CCCC2CO)CCCC1CO (stereo not shown) [EXAMPLE 18, 1,1'-(1,14-tetradecanediyl)bis(2-hydroxymethl-1-methylpyrrolidium) dibromide] | 22 | +++ (a 50% inhibition of (^3 H) hypoxanthine incorporation (ED50), these molecules having a concentration less than or equal to 0.01 micromoles) |  |  |  |  | 
4 | C[N+]1(CCCCCCCCCCCCCCCC[N+]2(C)CCCC(CO)C2)CCCC(CO)C1 (stereo not shown) [EXAMPLE 20] | 17 | +++ (a 50% inhibition of (^3 H) hypoxanthine incorporation (ED50), these molecules having a concentration less than or equal to 0.01 micromoles) |  |  |  |  | 
5 | C[N+]1(CCCCCCCCCCCCCCCC[N+]2(C)CCCC2)CCCC1 [Example G25] |  |  | decline in parasitemia was evident at the second dose | 0.03 | active (parasite clearance) but did not lead to complete cure (recurrence observed) | ~1.5 | > 50
